The experiment addresses Phosphatidylinositol 3-kinase catalytic subunit type 3 (Homo sapiens, UniProt Q8NEB9). In words: VPS34 Enzyme Assays: 100 nL compounds in DMSO are added to wells of a 384 well microtitre plate (Greiner 780076). At room temperature: 5 ul VPS34 reaction buffer (Invitrogen Assay Buffer Q (diluted 1 in 5 with nanopure water) plus 2 mM DTT and 2 mM MnCl2) containing ATP (20 uM, Promega) and 200 uM PI-PS substrate (Invitrogen PV5122) is added followed immediately by 5 ul VPS34 reaction buffer (as above) containing VPS34 (5 nM, Millennium Protein Sciences Group) and the mixture is incubated with shaking at room temperature for 1 hour. Then 5 ul VPS34 stop-detect mix (as per Invitrogen Adapta Assay kit (PV5009) instructions (contains kinase quench buffer, TR-FRET buffer, Adapta Eu anti-ADP antibody and Alexa Fluor 647 ADP tracer)) is added to quench the reaction. The plates are then incubated for 30 minutes at room temperature with shaking and then read on a BMG PheraStar Plus reader. (Time-resolved FRET reads energy transfer from a long-lived donor to a nearby acceptor.)

pIC50: −log10 of the molar value.

Sequence of Phosphatidylinositol 3-kinase catalytic subunit type 3 (Q8NEB9 whole entry): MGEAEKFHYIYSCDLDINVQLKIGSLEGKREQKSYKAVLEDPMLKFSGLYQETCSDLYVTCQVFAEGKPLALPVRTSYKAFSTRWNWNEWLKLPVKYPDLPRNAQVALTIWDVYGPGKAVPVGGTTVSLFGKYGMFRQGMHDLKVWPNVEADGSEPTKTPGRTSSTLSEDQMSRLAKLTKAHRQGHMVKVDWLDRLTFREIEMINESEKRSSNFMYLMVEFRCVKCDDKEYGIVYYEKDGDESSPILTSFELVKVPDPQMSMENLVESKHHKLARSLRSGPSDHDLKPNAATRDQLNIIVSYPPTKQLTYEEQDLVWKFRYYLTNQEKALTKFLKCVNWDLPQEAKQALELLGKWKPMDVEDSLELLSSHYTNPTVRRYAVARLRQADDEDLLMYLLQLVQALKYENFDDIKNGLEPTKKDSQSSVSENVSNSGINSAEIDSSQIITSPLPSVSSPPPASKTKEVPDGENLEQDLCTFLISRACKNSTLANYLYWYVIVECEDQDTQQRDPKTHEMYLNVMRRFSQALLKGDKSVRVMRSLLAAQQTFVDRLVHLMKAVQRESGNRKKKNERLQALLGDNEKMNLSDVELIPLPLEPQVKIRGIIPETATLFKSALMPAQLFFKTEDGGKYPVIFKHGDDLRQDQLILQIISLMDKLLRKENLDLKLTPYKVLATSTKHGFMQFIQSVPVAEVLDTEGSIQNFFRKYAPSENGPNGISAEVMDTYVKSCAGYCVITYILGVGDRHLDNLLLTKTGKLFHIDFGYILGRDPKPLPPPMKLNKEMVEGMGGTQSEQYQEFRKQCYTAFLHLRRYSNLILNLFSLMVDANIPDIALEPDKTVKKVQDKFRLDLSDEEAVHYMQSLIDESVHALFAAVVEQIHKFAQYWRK

In general, pIC50 refers to −log10 of the IC50, conventionally taken in molar units. Turning to `CC(=O)Nc1cc(-c2cnc(C)c(NS(=O)(=O)c3ccc(C)cc3Cl)c2)ccn1`, the negative logarithm of the IC50 (pIC50) is over 8.00.

(Values after ChEMBL document CHEMBL5726383, “Heteroaryls and uses thereof” (2017).)
